In ChEMBL document CHEMBL1126778, “Adenosine A1 antagonists. 3. Structure-activity relationships on amelioration against scopolamine- or N6-((R)-phenylisopropyl)adenosine-induced cognitive disturbance” (J Med Chem, 1993):
Each block holds one molecule with its values, some of them ahead of it.

What was measured:
[1] = molecular target: T1, Adenosine receptor A1 (Bos taurus) (UniProt P28190); test: Binding affinity for Adenosine A1 receptor of bovine brain at 10e-5 M with [125I]-N6-aminobenzyladenosine
T1 sequence (whole entry): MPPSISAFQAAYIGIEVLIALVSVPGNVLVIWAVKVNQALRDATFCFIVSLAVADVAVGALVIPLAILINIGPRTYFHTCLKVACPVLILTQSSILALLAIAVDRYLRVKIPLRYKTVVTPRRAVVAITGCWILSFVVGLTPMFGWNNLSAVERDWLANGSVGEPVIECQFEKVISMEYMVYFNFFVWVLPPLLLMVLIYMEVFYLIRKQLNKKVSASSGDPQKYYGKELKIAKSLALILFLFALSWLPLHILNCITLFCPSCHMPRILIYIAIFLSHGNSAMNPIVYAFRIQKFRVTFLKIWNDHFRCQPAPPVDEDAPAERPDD

Adenosine A2 receptor = Adenosine A2 receptor (Homo sapiens, UniProt P29275+P29274); test: Binding affinity towards Adenosine A2 receptor of human platelets with [125I]-N6-aminobenzyladenosine
Mus musculus [2] = test: Acquisition time in (R)-PIA) induced avoidance test (performed in mice) for antagonistic activity after peroral administration of 0.08 mg/kg; format: functional; conditions: route oral
Mus musculus [3] = test: Acquisition time in (R)-PIA) induced avoidance test (performed in mice) for antagonistic activity after p.o. administration of 0.31 mg/kg; format: functional; conditions: route oral
Mus musculus [4] = test: Acquisition time in (R)-PIA) induced avoidance test (performed in mice) for antagonistic activity after p.o. administration of 1.25 mg/kg; format: functional; conditions: route oral
Mus musculus [5] = test: Acquisition time in (R)-PIA) induced avoidance test (performed in mice) for antagonistic activity after peroral administration of 20 mg/kg; format: functional; conditions: route oral
Mus musculus [6] = test: Retention time in (R)-PIA) induced avoidance test (performed in mice) for antagonistic activity after p.o. administration of 1.25 mg/kg; format: functional, organism-based; design: dose 1.25 mg/kg
Mus musculus [7] = test: Retention time in (R)-PIA) induced avoidance test (performed in mice) for antagonistic activity after peroral administration of 20 mg/kg; format: functional, organism-based; design: dose 20 mg/kg
Mus musculus [8] = test: Retention time in (R)-PIA) induced avoidance test (performed in mice) for antagonistic activity after peroral administration of 5 mg/kg; format: functional, organism-based; design: dose 5 mg/kg
Mus musculus [9] = test: Retention time in (R)-PIA) induced avoidance test (performed in mice) for antagonistic activity after peroral administration of 0.08 mg/kg; format: functional, organism-based; design: dose 0.08 mg/kg
Mus musculus [10] = test: Retention time in (R)-PIA) induced avoidance test (performed in mice) for antagonistic activity after peroral administration of 0.31 mg/kg; format: functional, organism-based; design: dose 0.31 mg/kg
Rattus norvegicus [11] = test: Acquisition time in Scopolamine induced avoidance test (performed in rat) for antagonistic activity after peroral administration of 1.25 mg/kg; format: functional; conditions: route oral
Rattus norvegicus [12] = test: Acquisition time in Scopolamine induced avoidance test (performed in rat) for antagonistic activity after peroral administration of 20 mg/kg; format: functional; conditions: route oral
Rattus norvegicus [13] = test: Acquisition time in Scopolamine induced avoidance test (performed in rat) for antagonistic activity after p.o. administration of 0.08 mg/kg; format: functional; conditions: route oral
Rattus norvegicus [14] = test: Acquisition time in Scopolamine induced avoidance test (performed in rat) for antagonistic activity after p.o. administration of 0.31 mg/kg; format: functional; conditions: route oral
Rattus norvegicus [15] = test: Acquisition time in Scopolamine induced avoidance test (performed in rat) for antagonistic activity after p.o. administration of 5 mg/kg; format: functional; conditions: route oral
Rattus norvegicus [16] = test: Retention time in Scopolamine induced avoidance test (performed in […]) for antagonistic activity after peroral administration of 5 mg/kg; format: functional, organism-based; design: dose 5 mg/kg
Rattus norvegicus [17] = test: Retention time in Scopolamine induced avoidance test (performed in rat) for antagonistic activity after p.o. administration of 0.08 mg/kg; format: functional, organism-based; design: dose 0.08 mg/kg
Rattus norvegicus [18] = test: Retention time in Scopolamine induced avoidance test (performed in rat) for antagonistic activity after p.o. administration of 0.31 mg/kg; format: functional, organism-based; design: dose 0.31 mg/kg
Rattus norvegicus [19] = test: Retention time in Scopolamine induced avoidance test (performed in rat) for antagonistic activity after peroral administration of 1.25 mg/kg; format: functional, organism-based; design: dose 1.25 mg/kg
Rattus norvegicus [20] = test: Retention time in Scopolamine induced avoidance test (performed in rat) for antagonistic activity after peroral administration of 20 mg/kg; format: functional, organism-based; design: dose 20 mg/kg
Mus musculus [21] = test: Acquisition time in (R)-PIA) induced avoidance test (performed in mice) for antagonistic activity after peroral administration of 5 mg/kg; format: functional; conditions: route oral
Mus musculus [22] = test: Retention time in (R)-PIA) induced avoidance test (performed in mice) for antagonistic activity after peroral administration of 0.02 mg/kg
Mus musculus [23] = test: Acquisition time in (R)-PIA) induced avoidance test (performed in mice) for antagonistic activity after peroral administration of 0.02 mg/kg; conditions: route oral
Mus musculus [24] = test: Acquisition time in (R)-PIA) induced avoidance test (performed in mice) for antagonistic activity after peroral administration of 0.02 mg/kg; format: functional; conditions: route oral
Mus musculus [25] = test: Acquisition time in (R)-PIA) induced avoidance test (performed in mice) for antagonistic activity after peroral administration of 1.25 mg/kg; format: functional; conditions: route oral
Mus musculus [26] = test: Retention time in (R)-PIA) induced avoidance test (performed in mice) for antagonistic activity after peroral administration of 1.25 mg/kg; format: functional, organism-based; design: dose 1.25 mg/kg
Mus musculus [27] = test: Retention time in (R)-PIA) induced avoidance test (performed in mice) for antagonistic activity after peroral administration of 0.02 mg/kg; format: functional, organism-based; design: dose 0.02 mg/kg
Mus musculus [28] = test: Tested for locomotor activity after oral administration of 10 mg/kg for 120 min; format: functional
Mus musculus [29] = test: Tested for locomotor activity after oral administration of […] for 120 min; format: functional
Mus musculus [30] = test: Tested for locomotor activity after oral administration of 5 mg/kg for 120 min; format: functional
Rattus norvegicus [31] = test: Acquisition time in Scopolamine induced avoidance test (performed in rat) for antagonistic activity after peroral administration of 5 mg/kg; format: functional; conditions: route oral
Rattus norvegicus [32] = test: Acquisition time in Scopolamine induced avoidance test (performed in rat) for antagonistic activity after peroral administration of 0.02 mg/kg; format: functional; conditions: route oral
Rattus norvegicus [33] = test: Acquisition time in Scopolamine induced avoidance test (performed in rat) for antagonistic activity after peroral administration of 0.08 mg/kg; format: functional; conditions: route oral
Rattus norvegicus [34] = test: Retention time in Scopolamine induced avoidance test (performed in rat) for antagonistic activity after peroral administration of 0.02 mg/kg; format: functional, organism-based; design: dose 0.02 mg/kg
Rattus norvegicus [35] = test: Retention time in Scopolamine induced avoidance test (performed in rat) for antagonistic activity after peroral administration of 5 mg/kg (n=15); format: functional, organism-based; design: dose 5 mg/kg

inhibition [1]: 66%
Ki (Adenosine A2 receptor): > 100 µM
SMILES: CCCn1c(=O)c2nc(C3CCCC3)[nH]c2n(CCc2ccc(NC(C)=O)cc2)c1=O
Acquisition time (Mus musculus [2]): 23.9 s
Acquisition time (Mus musculus [3]): 18.9 s
Acquisition time (Mus musculus [4]): 18.8 s
Acquisition time (Mus musculus [5]): 20.5 s
Retention time (Mus musculus [6]): 20 s
Retention time (Mus musculus [7]): 32.2 s
Retention time (Mus musculus [8]): 47.5 s
Retention time (Mus musculus [9]): 75.4 s
Retention time (Mus musculus [10]): 38.7 s
Acquisition time (Rattus norvegicus [11]): 12.6 s
Acquisition time (Rattus norvegicus [12]): 13.8 s
Acquisition time (Rattus norvegicus [13]): 15.4 s
Acquisition time (Rattus norvegicus [14]): 15.5 s
Acquisition time (Rattus norvegicus [15]): 15.9 s
Retention time (Rattus norvegicus [16]): 187 s
Retention time (Rattus norvegicus [17]): 175 s
Retention time (Rattus norvegicus [18]): 130 s
Retention time (Rattus norvegicus [19]): 170 s
Retention time (Rattus norvegicus [20]): 116 s
Acquisition time (Mus musculus [21]): 27.8 s
Retention time (Mus musculus [22]): 137 s
Acquisition time (Mus musculus [23]): 12.2 s

SMILES: CCCn1c(=O)c2nc(C(C3CC3)C3CC3)[nH]c2n(CCC)c1=O
Acquisition time (Mus musculus [24]): 32.9 s
Acquisition time (Mus musculus [2]): 46.5 s
Acquisition time (Mus musculus [3]): 21.7 s
Acquisition time (Mus musculus [25]): 22.7 s
Retention time (Mus musculus [8]): 248 s
Retention time (Mus musculus [9]): 83.9 s
Retention time (Mus musculus [10]): 140 s
Retention time (Mus musculus [26]): 262 s
Retention time (Mus musculus [27]): 51.3 s
Locomotor activity (Mus musculus [28]): 5371 Counts
Locomotor activity (Mus musculus [29]): 4365 Counts
Locomotor activity (Mus musculus [30]): 5631 Counts
Acquisition time (Rattus norvegicus [11]): 20.4 s
Acquisition time (Rattus norvegicus [31]): 14.7 s
Acquisition time (Rattus norvegicus [32]): 29.9 s
Acquisition time (Rattus norvegicus [33]): 19.3 s
Acquisition time (Rattus norvegicus [14]): 15.6 s
Retention time (Rattus norvegicus [34]): 48.8 s
Retention time (Rattus norvegicus [17]): 54.1 s
Retention time (Rattus norvegicus [18]): 218 s
Retention time (Rattus norvegicus [35]): 120 s
Acquisition time (Mus musculus [21]): 28.1 s
